From patent US20250282746A1, “HALOGEN-SUBSTITUTED ISOINDOLINE COMPOUND AND USE THEREOF” (CHENGDU FENDI PHARMACEUTICAL CO., LTD., priority 2022, published 2025) come the findings set out here.

By IC50 is commonly meant the midpoint of a concentration-inhibition curve.

Data set [1] relates to MV-4-11 cells. Briefly: Antiproliferative activity against MV-4-11 cells (CellTiter-Glo, 72 h). Format: cell-based. To be noted: Homo sapiens, MV4-11; MV-4-11 cells, 72 h; read-out: Antiproliferative activity IC50. In short, it runs like this:
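MV-4-11 cells in RPMI + 10% FBS plated at 5,000 cells/well and pre-incubated 24 h at 37 °C, 5% CO2. Compounds were then added (final DMSO 0.2%) and cells incubated 72 h. Viability was read by CellTiter-Glo luminescence after 30 min equilibration at room temperature.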
On the technique in general: Cellular ATP, detected with luciferase, serves as a proxy for viable cell number.

For the next data set, the system named is NCI-H929 cells. Nature of the data set: Antiproliferative activity against various tumor cells: NCI-H929. Format: cell-based. Particulars: Homo sapiens; NCI-H929 cells, 72 h; read-out: Antiproliferative activity IC50 NCI-H929. Here is the method:
(§1) U937, NCI-H929, AML-2, and MOLM-13 cells in the logarithmic growth phase were diluted in media RPMI+10% FBS, RPMI+10% FBS, MEMα+20% FBS, RPMI+20% FBS, respectively, and plated at 4,000 cells/well in 96-well whole black plates (WHB) with 50 μL/well. After plating, the plates were incubated in an incubator at 5% CO2 and 37° C. for 24 h before the compounds were added. The compounds were prepared into a 10 mM stock solution in DMSO and diluted in a culture medium to the desired concentrations (a final DMSO concentration of 0.2%). […] The plates were incubated at 5% CO2 and 37° C. for 72 h. After the incubation was complete, the plates were equilibrated at room temperature for 30 min. CellTiter-Glo® Reagent (Promega G7573) was added at 100 μL/well. The plates were shaken for 12 min on a microplate shaker. The luminescence value was measured at room temperature by the GloMax navigator (Promega GM2010).

The subject of the next data set is U937 cells. Briefly: Antiproliferative activity against various tumor cells: U937. Particulars: Homo sapiens, U-937; U937 cells, 72 h; read-out: Antiproliferative activity IC50 U937. Format: cell-based. Here is the method: as §1
Another data set relates to MOLM-13 cells. Briefly: Antiproliferative activity against various tumor cells: MOLM-13. Format: cell-based. To be noted: Homo sapiens; MOLM-13 cells, 72 h; read-out: Antiproliferative activity IC50 MOLM-13. Here is the method:
as §1

In the next data set the test system is AML-2 cells. Nature of the data set: Antiproliferative activity against various tumor cells: AML-2. The data set is classed as cell-based. Particulars: AML-2 cells, 72 h; read-out: Antiproliferative activity IC50 AML-2. Here is the method: as §1
Data set [2] relates to MV-4-11 cells. Briefly: Apoptotic effect on AML cells (annexin/PI flow cytometry). Format: cell-based, human. Particulars: 1 μM and 100 nM. Here is the method: MV-4-11 cells in the logarithmic growth phase were diluted in a growth medium and plated at 600,000 cells/well in 6-well plates with 2 mL/well and the compounds were added. The cells were collected, washed twice with pre-cooled PBS, and resuspended in 100 μL of 1× annexin-binding buffer. 5 μL of FITC and 1 μL of 100 µg/mL PI were added. The cells were incubated at room temperature in the dark for 15 min and transferred on ice, and 400 μL of 1× annexin-binding buffer was added. The mixture was gently mixed and subjected to flow cytometry.
In general terms: Flow cytometry measures light scatter and fluorescence of single cells or particles in a stream.

The target in the next data set is T1, GSPT1 protein (Homo sapiens, UniProt P15170).
T1 construct: The whole cell lysate was prepared using a RIPA lysis buffer; endogenous in cells; host or cells: NB-4 cells
T1 sequence (P15170 whole entry): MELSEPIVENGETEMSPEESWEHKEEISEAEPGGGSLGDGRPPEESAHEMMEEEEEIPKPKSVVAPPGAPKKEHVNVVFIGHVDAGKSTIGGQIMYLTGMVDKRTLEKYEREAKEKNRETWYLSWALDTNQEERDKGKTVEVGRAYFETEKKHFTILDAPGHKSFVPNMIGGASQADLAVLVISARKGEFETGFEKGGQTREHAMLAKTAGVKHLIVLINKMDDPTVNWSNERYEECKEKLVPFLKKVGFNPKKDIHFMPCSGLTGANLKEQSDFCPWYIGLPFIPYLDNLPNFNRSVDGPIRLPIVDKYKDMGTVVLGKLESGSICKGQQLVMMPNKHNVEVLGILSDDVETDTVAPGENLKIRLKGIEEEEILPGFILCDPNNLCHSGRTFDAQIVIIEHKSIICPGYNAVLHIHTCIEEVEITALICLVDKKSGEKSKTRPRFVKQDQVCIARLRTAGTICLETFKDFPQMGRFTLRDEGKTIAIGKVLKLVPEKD
Nature of the data set: Degradation of GSPT1 protein in NB-4 cells (Western blot). The data set is classed as cell-based. Particulars: NB-4 cells, compound 1 μM, 6 h; read-out: GSPT1 degradation. In short, it runs like this:
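NB-4 cells treated with compounds at 1 μM for 6 h at 37 °C, 5% CO2, with DMSO control. RIPA whole-cell lysates, BCA-normalized, were run on 4-20% SDS-PAGE and immunoblotted for GSPT1 protein.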
Background: A western blot detects proteins with antibodies after separation by electrophoresis.

The target of the next data set is T2, hERG potassium channel (Homo sapiens, UniProt Q12809).
T2 construct: expressed in transfected cells; host or cells: HEK293 cells
T2 sequence (Q12809 whole entry): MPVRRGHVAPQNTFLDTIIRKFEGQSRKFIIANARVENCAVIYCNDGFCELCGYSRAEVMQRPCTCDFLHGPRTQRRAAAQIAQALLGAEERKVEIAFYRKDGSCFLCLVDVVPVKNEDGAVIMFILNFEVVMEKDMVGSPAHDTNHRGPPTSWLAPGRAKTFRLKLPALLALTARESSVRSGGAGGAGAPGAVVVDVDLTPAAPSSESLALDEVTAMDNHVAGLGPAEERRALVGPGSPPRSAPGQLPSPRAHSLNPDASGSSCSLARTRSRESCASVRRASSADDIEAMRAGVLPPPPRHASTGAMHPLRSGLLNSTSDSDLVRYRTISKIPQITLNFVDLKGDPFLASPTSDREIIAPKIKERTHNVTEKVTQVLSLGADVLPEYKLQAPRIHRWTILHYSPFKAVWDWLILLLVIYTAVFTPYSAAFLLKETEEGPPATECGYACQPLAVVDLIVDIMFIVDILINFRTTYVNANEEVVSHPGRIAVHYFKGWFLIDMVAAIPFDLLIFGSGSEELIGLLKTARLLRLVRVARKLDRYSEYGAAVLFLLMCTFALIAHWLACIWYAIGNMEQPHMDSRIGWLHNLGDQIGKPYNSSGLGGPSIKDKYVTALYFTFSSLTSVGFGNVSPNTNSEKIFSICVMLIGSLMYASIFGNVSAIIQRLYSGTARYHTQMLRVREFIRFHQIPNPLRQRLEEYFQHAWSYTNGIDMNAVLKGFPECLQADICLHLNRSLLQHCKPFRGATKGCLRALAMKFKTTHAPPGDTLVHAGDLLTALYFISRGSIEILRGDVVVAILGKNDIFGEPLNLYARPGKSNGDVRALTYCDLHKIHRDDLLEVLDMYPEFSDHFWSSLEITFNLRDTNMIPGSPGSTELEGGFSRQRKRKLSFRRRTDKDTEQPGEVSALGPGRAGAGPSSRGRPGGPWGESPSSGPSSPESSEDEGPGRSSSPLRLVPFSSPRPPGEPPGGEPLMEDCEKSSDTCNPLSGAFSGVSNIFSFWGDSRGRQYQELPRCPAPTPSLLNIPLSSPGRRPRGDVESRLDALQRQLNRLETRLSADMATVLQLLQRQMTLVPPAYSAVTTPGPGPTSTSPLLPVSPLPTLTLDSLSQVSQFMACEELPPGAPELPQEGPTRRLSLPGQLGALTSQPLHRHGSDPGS
Briefly: hERG inhibition assay (automated patch clamp, HEK293). The data set is classed as cell-based. To be noted: 3 μM, HEK293 cells, QPatch. The source says: The rapidly activating potassium channel encoded by human ether-a-go-go-related gene (hERG) is an important ion channel involved in the formation of cardiac action potential phase 3 repolarization. Blocking of the hERG channel by drugs can lead to the prolongation of cardiac repolarization and thus a prolonged QT interval in the electrocardiogram, known as long QT syndrome. Drug-induced delayed ventricular repolarization may in some cases trigger fatal arrhythmia-torsade de pointes-type ventricular tachycardia.
This assay was used to measure the effect of compounds on the hERG potassium channel clones expressed in human embryonic kidney (HEK293) cells. The assay procedures are as follows: the cells were transferred into a HEPES-buffered saline in glass-lined 96-well plates and exposed to an appropriate amount of test compound or control solution at various concentrations for 3 min. The test compounds were diluted in 0.3% DMSO.

The test system of a further data set is MV-4-11-Luc xenograft. Briefly: Efficacy in acute myeloid leukemia MV-4-11-luc xenograft mouse model. Format: in vivo. To be noted: 10 mg/kg orally twice daily, NSG mice. The source says: In an in vivo efficacy study, female immunocompromised NSG mice aged 6 to 8 weeks were used and the experimental procedures started after the animals were acclimatized in the experimental environment for 7 days. The animals were housed in SPF animal rooms in individually ventilated cages (IVCs) each containing 6 mice. Human acute myeloid leukemia MV-4-11 cells expressing luciferase (MV-4-11-luc) were grafted into mice by tail vein injection (5×10^6 cells/mouse). Seven days after the cell grafting, the mice were subjected to imaging on the IVIS Lumina III small animal imaging system for grouping and administration, and tumor-bearing mice were randomized to the vehicle control group or treatment groups (6 mice/group). The compound (10 mg/kg, twice daily) was administered to the animals in each treatment group by oral gavage. The body weight was measured daily, while mean luminescence was measured after the start of treatment with the compounds or vehicle.
Indicators: The indicators were to investigate whether the tumor growth was inhibited or delayed or the tumor was cured. The tumor size was measured twice weekly using the IVIS Lumina III small animal imaging system. The tumor signals were determined by exposure photons per second. The anti-tumor efficacy of the compounds was evaluated by the tumor proliferation rate T/C (%). T/C %=TRTV/CRTV×100% (TRTV: the RTV of the treatment group; CRTV: the RTV of negative control group; RTV=Vt/V0, where V0 is the tumor signal measured at the time of grouping and administration (i.e., day 0), and Vt is the tumor signal at every measurement). According to the guidelines of the Center for Drug Evaluation, NMPA, a T/C (%) of >40% denotes the absence of efficacy, while a T/C of <40% with P<0.05 denotes the presence of efficacy.

In the case of `Cc1ccc(C(=O)NCc2ccc3c(c2F)CN(C2CCC(=O)NC2=O)C3=O)cc1` (stereo not shown) [FDAB-65], the IC50 in the data set on MV-4-11 cells [1] lay within 10 to 100 nM; in the data set on NCI-H929 cells, 1 to 10 nM; in the data set on U937 cells it was 10 to 100 nM; with MOLM-13 cells, 100 to 1000 nM; in the data set on AML-2 cells, 100 to 1000 nM. Moreover, the “apoptotic effect on MV-4-11 cells” value with MV-4-11 cells [2] (treated for 7 h, 10 µM) is “no apoptotic effect”; in the data set on MV-4-11 cells [2] (treated for 16 h), “apoptosis was induced”. Further, the inhibition at 1 µM on GSPT1 protein is more than 80%. The hERG inhibition rate at hERG potassium channel is on record as 11%. For the same compound, the “T/C (%) Day 3” value in the data set with MV-4-11-Luc xenograft (day 3) turned out to be 4.58%. The “T/C (%) Day 7” value in the data set with MV-4-11-Luc xenograft (day 7) is 1.40%. The “T/C (%) Day 10” value in the data set with MV-4-11-Luc xenograft (day 10) is 1.01%. Further, the “T/C (%) Day 14” value in the data set on MV-4-11-Luc xenograft (day 14) was found to be 0.78%.
